In patent publication EP0636624A1, “Thiazole derivatives as lipoxygenase inhibitors” (ZENECA LIMITED, priority 1993, dated 1995):
pIC50: −log10 of the molar value.

Assays:
[1] = system: hepatic enzymes; experiment: Auto-induction on repeated dosing (fall in C max / AUC); assay type: in vivo; conditions: repeated dosing to a warm-blooded animal
Text: The result is a decrease on repeat dosing of the quantity of the compound present in the animal's blood stream as shown, for example, by a decrease in the maximum concentration achieved (C max) or, for example, a decrease in the exposure of the animal to the compound as measured by the area under the curve (AUC) of a plot of the concentration of the compound in the blood stream versus time after dosing.

[2] = target: T1, 5-LO (Homo sapiens, UniProt P09917); experiment: Test a): in vitro heparinised human blood challenged with calcium ionophore A23187, LTB4 radioimmunoassay; assay type: cell-based; conditions: heparinised human blood, A23187 challenge; read-out: IC₅₀ against LTB₄ in test a)
T1 construct: incubating a test compound with heparinised human blood, prior to challenge with the calcium ionophore A23187; endogenous in cells; host or cells: blood cells of heparinised human whole blood
T1 sequence (P09917 1-674): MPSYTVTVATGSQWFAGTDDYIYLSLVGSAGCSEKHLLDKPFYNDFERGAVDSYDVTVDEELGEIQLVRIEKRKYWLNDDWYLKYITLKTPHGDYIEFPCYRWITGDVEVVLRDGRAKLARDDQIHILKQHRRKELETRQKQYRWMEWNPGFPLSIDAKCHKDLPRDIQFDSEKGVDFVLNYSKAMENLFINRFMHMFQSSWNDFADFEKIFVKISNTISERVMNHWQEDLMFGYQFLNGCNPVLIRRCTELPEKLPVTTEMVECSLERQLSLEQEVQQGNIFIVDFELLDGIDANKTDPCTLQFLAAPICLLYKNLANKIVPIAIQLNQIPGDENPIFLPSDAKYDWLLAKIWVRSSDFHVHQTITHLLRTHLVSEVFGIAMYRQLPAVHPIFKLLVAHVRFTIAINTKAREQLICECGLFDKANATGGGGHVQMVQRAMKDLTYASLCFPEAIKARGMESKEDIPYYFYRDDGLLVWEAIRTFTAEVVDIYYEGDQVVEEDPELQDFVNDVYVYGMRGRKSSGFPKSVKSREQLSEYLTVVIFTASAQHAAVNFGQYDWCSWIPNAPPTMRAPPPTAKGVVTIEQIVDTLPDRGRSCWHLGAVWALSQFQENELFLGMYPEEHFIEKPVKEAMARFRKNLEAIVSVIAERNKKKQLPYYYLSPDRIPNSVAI
Text: As stated previously, the compounds of the formula I are inhibitors of the enzyme 5-LO. […] J. Pharmacol. 1985, 84, 34P) which involve the use of a protein-LTB₄ conjugate produced using the procedure of Young et alia (Prostaglandins, 1983, 26(4), 605-613). The effects of a test compound on the enzyme cyclooxygenase (which is involved in the alternative metabolic pathway for arachidonic acid and gives rise to prostaglandins, thromboxanes and related metabolites) may be measured at the same time using the specific radioimmunoassay for thromboxane B₂(TxB₂) described by Carey and Forder (see above). This test provides an indication of the effects of a test compound against 5-LO and also cyclooxygenase in the presence of blood cells and proteins. It permits the selectivity of the inhibitory effect on 5-LO or cyclooxygenase to be assessed. • b) An ex vivo assay system, which is a variation of test a) above, involving administration to a group of rats of a test compound (usually orally as the suspension produced when a solution of the test compound in dimethylsulphoxide is added to carboxymethylcellulose), blood collection, heparinisation, challenge with A23187 and radioimmunoassay of LTB₄ and TxB₂. […]

[3] = system: 5-LO; experiment: Test c): in vivo zymosan-induced LTB4 liberation in rat subcutaneous air pouch; parameters: species or system male rats; conditions: oral, approximate value, 180 min

`COC1(c2ccc(Sc3ccc4c(c3)CCC(=O)N4C)s2)CCOCC1` [4-methoxy-4-[5-(1-methyl-2-oxo-1,2,3,4-tetrahydroquinolin-6-ylthio)-thien-2-yl]tetrahydropyran] was tested, and the auto-induction [1] was “possesses the undesirable property of auto-induction”.
For `CO[C@]1(c2cnc(Sc3ccc4c(c3)CCC(=O)N4C)s2)CCO[C@@H](C)C1` [Example 3, (2S,4R)-4-methoxy-2-methyl-4-[2-(1-methyl-2-oxo-1,2,3,4-tetrahydroquinolin-6-ylthio)thiazol-5-yl]tetrahydropyran], the pIC50 [2] was 7.22 and the “IC₅₀ against LTB₄ in test c)” value [3] was “approximately 0.2 mg/kg”.
